Measured values: ChEMBL document CHEMBL2074423, “Inhibition of P-glycoprotein activity and reversal of cancer multidrug resistance by Momordica charantia extract” (Cancer Chemother Pharmacol, 2004)

Molecular target: ATP-dependent translocase ABCB1 (Homo sapiens, UniProt P08183)
Test: TP_TRANSPORTER: drug resistance (vinblastine) in KB-V1 cells
Format: functional, cell-based

Sequence of ATP-dependent translocase ABCB1 (P08183 whole entry): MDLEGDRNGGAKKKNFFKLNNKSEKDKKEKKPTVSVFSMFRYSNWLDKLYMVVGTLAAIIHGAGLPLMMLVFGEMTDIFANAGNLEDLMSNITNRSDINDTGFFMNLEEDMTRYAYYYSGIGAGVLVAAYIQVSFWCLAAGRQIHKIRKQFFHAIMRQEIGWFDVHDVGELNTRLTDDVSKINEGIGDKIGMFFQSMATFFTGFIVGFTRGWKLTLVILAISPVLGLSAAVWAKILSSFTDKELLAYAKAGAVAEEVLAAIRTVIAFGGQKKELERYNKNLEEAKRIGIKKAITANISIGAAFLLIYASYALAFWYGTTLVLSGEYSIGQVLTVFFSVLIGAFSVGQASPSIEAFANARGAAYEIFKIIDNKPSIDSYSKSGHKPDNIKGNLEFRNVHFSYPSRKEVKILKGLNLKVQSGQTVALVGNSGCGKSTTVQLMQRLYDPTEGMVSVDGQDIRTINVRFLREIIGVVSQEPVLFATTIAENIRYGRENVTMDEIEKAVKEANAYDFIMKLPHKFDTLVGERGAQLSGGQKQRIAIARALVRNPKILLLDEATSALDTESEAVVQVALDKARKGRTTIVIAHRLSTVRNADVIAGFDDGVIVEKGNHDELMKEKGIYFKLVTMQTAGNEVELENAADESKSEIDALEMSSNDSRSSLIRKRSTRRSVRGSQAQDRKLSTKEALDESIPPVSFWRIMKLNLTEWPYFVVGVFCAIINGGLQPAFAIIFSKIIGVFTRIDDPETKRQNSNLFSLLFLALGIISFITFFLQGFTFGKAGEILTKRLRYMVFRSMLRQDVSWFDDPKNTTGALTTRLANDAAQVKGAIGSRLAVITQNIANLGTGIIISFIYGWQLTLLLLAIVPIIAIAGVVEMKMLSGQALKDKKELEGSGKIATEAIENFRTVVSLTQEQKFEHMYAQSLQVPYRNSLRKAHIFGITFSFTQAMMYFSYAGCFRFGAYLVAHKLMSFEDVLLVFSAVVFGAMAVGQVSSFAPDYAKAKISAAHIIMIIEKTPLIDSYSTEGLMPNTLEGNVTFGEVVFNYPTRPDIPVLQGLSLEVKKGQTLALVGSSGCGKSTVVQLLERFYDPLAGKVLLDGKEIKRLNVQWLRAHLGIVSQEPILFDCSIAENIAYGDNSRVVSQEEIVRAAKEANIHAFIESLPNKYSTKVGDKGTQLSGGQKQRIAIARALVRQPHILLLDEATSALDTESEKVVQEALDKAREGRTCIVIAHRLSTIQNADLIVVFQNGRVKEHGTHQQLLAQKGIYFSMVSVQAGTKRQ

Substance: BITTER MELON LEAF EXTRACT
- Activity: inhibitor [+]
